One block for each compound: values may come before it. Where a SMILES comes first, the peptide text is derived from it. The star is where a group is joined. Cbz = O=C(OCc1ccccc1)*
Tests used:
ZR-75-1 cells = test: Cell growth (confluency, Incucyte S3); assay type: cell-based; conditions: ZR-75-1, 1 μM
Protocol: (§1) Figure 6 SGK3-PROTAC1-mediated degradation of SGK3 further inhibiting the growth of cancer cell lines treated with PI3K-Akt pathway inhibitors. CAMA-1 (A, C) and ZR-75-1 (B, D) were treated with compounds as indicated either as monotherapy or in combination, and confluency was measured on the Incucyte S3 every 4 h for up to 4 weeks.
(§2) For growth assays, ZR-75-1 cells were seeded in 96-well plates at a density of 6000 cells/well and left to adhere overnight. Cells were then treated with compounds as described in the figure legends and imaged every 4 h on the Incucyte S3 (Essen Bioscience) for up to 4 weeks to give a measure of cell confluency. Media were refreshed every 4–5 days.
(§3) Supplementary Figure S3. SGK3-PROTAC compounds have no effect on cell growth. CAMA-1 and ZR-75-1
(§4) confluency was m easured every 4 h on Incucyte S3.
(§5) (1 picture or pasted object on this page, not shown here)

CAMA-1 cells = test: Cell growth (confluency, Incucyte S3); assay type: cell-based; conditions: CAMA-1, 1 μM
Protocol: as §1, §2, §3, §4, §5

SGK1 = biological target: T1, SGK1 (Homo sapiens, UniProt O00141, S422D); test: IC50 determination, biochemical kinase assay; conditions: not in the presence of VHL
T1 sequence (O00141 60-431 S422D limits assumed): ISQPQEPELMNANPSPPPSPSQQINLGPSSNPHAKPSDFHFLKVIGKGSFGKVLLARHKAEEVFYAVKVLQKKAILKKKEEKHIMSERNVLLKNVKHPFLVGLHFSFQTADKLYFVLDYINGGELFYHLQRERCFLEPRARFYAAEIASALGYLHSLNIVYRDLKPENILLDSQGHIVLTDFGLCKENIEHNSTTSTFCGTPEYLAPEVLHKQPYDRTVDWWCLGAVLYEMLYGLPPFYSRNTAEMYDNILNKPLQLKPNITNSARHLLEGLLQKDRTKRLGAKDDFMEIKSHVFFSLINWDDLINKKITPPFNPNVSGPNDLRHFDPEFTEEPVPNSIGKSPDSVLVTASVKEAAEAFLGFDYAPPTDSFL

S6K1 = S6K1 (Homo sapiens, UniProt P23443, T412E); test: IC50 determination, biochemical kinase assay; conditions: not in the presence of VHL
S6K1, sequence (P23443 1-421 T412E limits assumed): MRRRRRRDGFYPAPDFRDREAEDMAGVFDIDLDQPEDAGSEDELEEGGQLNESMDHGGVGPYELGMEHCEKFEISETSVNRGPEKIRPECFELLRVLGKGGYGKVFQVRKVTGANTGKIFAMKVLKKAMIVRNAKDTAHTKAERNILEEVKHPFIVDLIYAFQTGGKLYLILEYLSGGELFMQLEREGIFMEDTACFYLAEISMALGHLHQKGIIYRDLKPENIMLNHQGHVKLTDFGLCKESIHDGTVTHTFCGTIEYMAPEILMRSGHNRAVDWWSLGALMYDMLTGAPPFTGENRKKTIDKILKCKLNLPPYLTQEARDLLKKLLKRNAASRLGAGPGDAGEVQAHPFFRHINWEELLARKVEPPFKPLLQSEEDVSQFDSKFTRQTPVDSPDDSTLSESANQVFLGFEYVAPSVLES
Protocol: (§6) IC50 determination was performed at the MRC PPU International Centre for Protein Kinase Profiling, according to the protocol previously described[47],[48]

SGK3 [1] = biological target: T2, SGK3 (Homo sapiens, UniProt Q96BR1); test: IC50 determination, biochemical kinase assay; conditions: for IC50: not in the presence of VHL
T2 sequence (Q96BR1 1-496): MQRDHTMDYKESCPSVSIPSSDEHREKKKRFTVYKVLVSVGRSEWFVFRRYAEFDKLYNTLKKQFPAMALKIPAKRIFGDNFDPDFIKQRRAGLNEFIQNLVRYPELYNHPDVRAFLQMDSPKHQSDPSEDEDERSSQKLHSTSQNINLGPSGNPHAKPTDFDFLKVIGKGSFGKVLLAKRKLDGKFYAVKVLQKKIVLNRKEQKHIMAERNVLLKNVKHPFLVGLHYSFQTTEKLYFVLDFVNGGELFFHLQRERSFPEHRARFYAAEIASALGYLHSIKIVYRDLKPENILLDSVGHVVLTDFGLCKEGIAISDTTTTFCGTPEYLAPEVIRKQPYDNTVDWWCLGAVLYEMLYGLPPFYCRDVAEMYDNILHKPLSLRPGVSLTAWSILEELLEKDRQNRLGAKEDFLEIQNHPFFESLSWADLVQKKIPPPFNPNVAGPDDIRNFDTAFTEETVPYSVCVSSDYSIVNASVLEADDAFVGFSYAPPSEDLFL
Protocol: as §6

SGK3 [2] = biological target: T2, SGK3; test: SGK3 degradation in HEK293 cells, immunoblot; assay type: cell-based; set-up: reduced endogenous SGK isoform or S6K1 expression when administered to HEK293 cells for 48 h; endogenous in cells; host or cells: HEK293; conditions: for effect on SGK3-PROTAC1-mediated degradation of SGK3: HEK293, pretreatment, 6 h 0.3 µM SGK3-PROTAC1; for effect on DAT1-induced degradation of SGK3: HEK293, MLN4924 3 μM, MG132 50 μM
Protocol: Figure 1 Design and cellular activity of first generation SGK3 PROTACs. (A) Structure of compound 14H, previously published by Sanofi as an inhibitor of SGK3. (B) Starting material for SGK PROTACs. […] (C) Structures of first generation SGK PROTACs. SGK and E3 ligase targeting motifs were joined by a 3xPEG linker to produce the PROTACs. (D) HEK293 cells were treated for 48 h with increasing concentrations of each PROTAC compound from 0.1 nM to 10 μM. Cell lysates were subjected to immunoblot analysis with the indicated antibodies, and SGK3 protein levels were quantified in Image Studio Lite software (Licor).
Figure 2 Design and cellular evaluation of second and third generation SGK PROTACs. (A) Chemical structure of compounds DAT5–12, expanding upon DAT1. (B) Chemical structure of cisSGK3-PROTAC1. (C) HEK293 cells were treated for 48 h with increasing concentrations of each PROTAC compound from 1 nM to 10 μM. Cell lysates were subjected to immunoblot analysis with the indicated antibodies, and SGK3 protein levels quantified in Image Studio Lite software. (D) HEK293 cells were treated for 48 h with increasing concentrations of each PROTAC compound from 1 nM to 10 μM. Cell lysates were subjected to immunoblot analysis with the indicated antibodies, and SGK3 and S6K1 protein levels were quantified in Image Studio Lite software. TEXT PRINTED IN THE PICTURE: (C) DAT1: % SGK3: 100 (48h Treatment (μM): 0); % SGK3: 94 (48h Treatment (μM): 0.001); % SGK3: 82 (48h Treatment (μM): 0.01); % SGK3: 70 (48h Treatment (μM): 0.1); % SGK3: 52 (48h Treatment (μM): 1); % SGK3: 31 (48h Treatment (μM): 10) | (C) DAT5: % SGK3: 100 (48h Treatment (μM): 0); % SGK3: 104 (48h Treatment (μM): 0.001); % SGK3: 82 (48h Treatment (μM): 0.01); % SGK3: 92 (48h Treatment (μM): 0.1); % SGK3: 73 (48h Treatment (μM): 1); % SGK3: 36 (48h Treatment (μM): 10) | (C) DAT6: % SGK3: 100 (48h Treatment (μM): 0); % SGK3: 105 (48h Treatment (μM): 0.001); % SGK3: 90 (48h Treatment (μM): 0.01); % SGK3: 71 (48h Treatment (μM): 0.1); % SGK3: 44 (48h Treatment (μM): 1); % SGK3: 20 (48h Treatment (μM): 10) | (C) DAT7: % SGK3: 100 (48h Treatment (μM): 0); % SGK3: 77 (48h Treatment (μM): 0.001); % SGK3: 80 (48h Treatment (μM): 0.01); % SGK3: 95 (48h Treatment (μM): 0.1); % SGK3: 37 (48h Treatment (μM): 1); % SGK3: 29 (48h Treatment (μM): 10) | (D) DAT8: % SGK3: 100 (48h Treatment (μM): 0); % SGK3: 97 (48h Treatment (μM): 0.001); % SGK3: 107 (48h Treatment (μM): 0.01); % SGK3: 34 (48h Treatment (μM): 0.1); % SGK3: 24 (48h Treatment (μM): 1); % SGK3: 19 (48h Treatment (μM): 10) | (D) DAT9: % SGK3: 100 (48h Treatment (μM): 0); % SGK3: 105 (48h Treatment (μM): 0.001); % SGK3: 71 (48h Treatment (μM): 0.01); % SGK3: 40 (48h Treatment (μM): 0.1); % SGK3: 11 (48h Treatment (μM): 1); % SGK3: 12 (48h Treatment (μM): 10) | (D) DAT10: % SGK3: 100 (48h Treatment (μM): 0); % SGK3: 100 (48h Treatment (μM): 0.001); % SGK3: 76 (48h Treatment (μM): 0.01); % SGK3: 54 (48h Treatment (μM): 0.1); % SGK3: 11 (48h Treatment (μM): 1); % SGK3: 9 (48h Treatment (μM): 10) | (D) DAT11: % SGK3: 100 (48h Treatment (μM): 0); % SGK3: 96 (48h Treatment (μM): 0.001); % SGK3: 97 (48h Treatment (μM): 0.01); % SGK3: 41 (48h Treatment (μM): 0.1); % SGK3: 32 (48h Treatment (μM): 1); % SGK3: 29 (48h Treatment (μM): 10) | (D) DAT12: % SGK3: 100 (48h Treatment (μM): 0); % SGK3: 106 (48h Treatment (μM): 0.001); % SGK3: 84 (48h Treatment (μM): 0.01); % SGK3: 79 (48h Treatment (μM): 0.1); % SGK3: 32 (48h Treatment (μM): 1); % SGK3: 29 (48h Treatment (μM): 10) DOUBTS OF THE COPYIST ABOUT THIS PICTURE: All % SGK3 values are quantification numbers printed under immunoblot lanes; each was assigned to a concentration by lane position / DAT9 and DAT10, % SGK3: the first numbers are printed run together ('100105', '100100') and were split as 100 | 105 and 100 | 100
Figure 3 Characterization of cellular activities of SGK3-PROTAC1 and cisSGK3-PROTAC1. […]

Compound: NC1(C(=O)N[C@@H](CCO)c2ccc(Cl)cc2)CCN(c2ncnc3[nH]ccc23)CC1 [AZD5363, reference compound]
growth, PI3K or Akt inhibitor monotherapy (ZR-75-1 cells): substantially reduced growth
growth, PI3K or Akt inhibitor monotherapy (CAMA-1 cells): substantially reduced growth

Compound: COc1ccc(Cl)c(S(=O)(=O)Nc2ccc(-c3nc(OC[C@H]4CN(CCOCCOCCOCC(=O)N[C@H](C(=O)N5C[C@H](O)C[C@H]5C(=O)NCc5ccc(-c6scnc6C)cc5)C(C)(C)C)CCO4)c4c(C)n[nH]c4n3)cc2)c1 [DAT2]
IC50 (SGK1): 400 nM
IC50 (S6K1): 180 nM
fold more potent inhibition of SGK1 and SGK3 than DAT1 (SGK3 [1]; SGK1 and SGK3): 2–4 fold
IC50 (SGK3 [1]): 190 nM

Compound: CS(=O)(=O)N1CCN(Cc2cc3nc(-c4cccc5[nH]ncc45)nc(N4CCOCC4)c3s2)CC1 [GDC0941, 2-(1H-Indazol-4-Yl)-6-(4-Methanesulfonyl-Piperazin-1-Ylmethyl)-4-Morpholin-4-Yl-t Hieno[3,2-d]Pyrimidine, reference compound]
growth, PI3K or Akt inhibitor monotherapy (ZR-75-1 cells): substantially reduced growth
growth, PI3K or Akt inhibitor monotherapy (CAMA-1 cells): substantially reduced growth

Compound: CC(C)C[C@@H](C=O)NC(=O)[C@H](CC(C)C)NC(=O)[C@H](CC(C)C)NC(=O)OCc1ccccc1 [MG132, reference compound] (Cbz-Leu-Leu-Leu-aldehyde)
effect on SGK3-PROTAC1-mediated degradation of SGK3 (SGK3 [2]): prevented
effect on DAT1-induced degradation of SGK3 (SGK3 [2]): blocked

Other lines, results leading:

IC50 (SGK1): 1000 nM
IC50 (S6K1): 240 nM
IC50 (SGK3 [1]): 640 nM
Compound: Cc1ccc(F)c(S(=O)(=O)Nc2ccc(-c3nc(OC[C@H]4CN(CCOCCOCCOCC(=O)NCCNc5cccc6c5C(=O)N(C5CCC(=O)NC5=O)C6=O)CCO4)c4cn[nH]c4n3)cc2)c1 (some centres unmarked) [DAT3]

IC50 (SGK1): 600 nM
IC50 (S6K1): 190 nM
IC50 (SGK3 [1]): 540 nM
Compound: COc1ccc(Cl)c(S(=O)(=O)Nc2ccc(-c3nc(OC[C@H]4CN(CCOCCOCCOCC(=O)NCCNc5cccc6c5C(=O)N(C5CCC(=O)NC5=O)C6=O)CCO4)c4c(C)n[nH]c4n3)cc2)c1 (some centres unmarked) [DAT4]

remaining activity at 0.001 µM (SGK3 [2]; HEK293, 48 h, 0.001 μM, Figure 2): 105%
remaining activity at 0.01 µM (SGK3 [2]; HEK293, 48 h, 0.01 μM, Figure 2): 71%
remaining activity at 0.1 µM (SGK3 [2]; HEK293, 48 h, 0.1 μM, Figure 2): 40%
remaining activity at 1 µM (SGK3 [2]; HEK293, 48 h, 1 μM, Figure 2): 11%
remaining activity at 10 µM (SGK3 [2]; HEK293, 48 h, 10 μM, Figure 2): 12%
IC50 (SGK1): 8990 nM
IC50 (S6K1): 4530 nM
IC50 (SGK3 [1]): 1790 nM
Compound: Cc1ccc(F)c(S(=O)(=O)Nc2ccc(-c3nc(OC[C@H]4CN(CCCCCCOCCOCCOCCOCC(=O)N[C@H](C(=O)N5C[C@H](O)C[C@H]5C(=O)NCc5ccc(-c6scnc6C)cc5)C(C)(C)C)CCO4)c4cn[nH]c4n3)cc2)c1 [DAT9]

effect on SGK3-PROTAC1-mediated degradation of SGK3 (SGK3 [2]): prevented
effect on DAT1-induced degradation of SGK3 (SGK3 [2]): blocked
Compound: NS(=O)(=O)OC[C@@H]1C[C@@H](n2ccc3c(N[C@H]4CCc5ccccc54)ncnc32)C[C@@H]1O [MLN4924, reference compound]

— article PMC6757289, “Design and Characterization of SGK3-PROTAC1, an Isoform Specific SGK3 Kinase PROTAC Degrader” (ACS Chemical Biology, 2019)
